Series [1] concerns the target Prostaglandin G/H synthase 1 (Homo sapiens, UniProt P23219). Put plainly: biochemical. It is filed as tissue-based, Platelet. The settings on record: platelet.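 Note: inhibition of COX-1 enzyme activity, with arachidonic acid supplied as substrate; in other assays of this panel Not Active means under 50% inhibition at 10 µM.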
Series [2] can be described thus: DRUGMATRIX: Phosphodiesterase PDE4 enzyme inhibition (substrate: [3H]cAMP + cAMP). The conditions noted are these: u-937; Not Active = under 50% inhibition at 10 µM.
In series [3] the target is T1, Neutrophil elastase (Homo sapiens, UniProt P08246).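 Note: inhibition of neutrophil elastase enzyme activity, measured with a p-nitroanilide-linked peptide substrate; in other assays of this panel Not Active means under 50% inhibition at 10 µM.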
T1 sequence (P08246 whole entry): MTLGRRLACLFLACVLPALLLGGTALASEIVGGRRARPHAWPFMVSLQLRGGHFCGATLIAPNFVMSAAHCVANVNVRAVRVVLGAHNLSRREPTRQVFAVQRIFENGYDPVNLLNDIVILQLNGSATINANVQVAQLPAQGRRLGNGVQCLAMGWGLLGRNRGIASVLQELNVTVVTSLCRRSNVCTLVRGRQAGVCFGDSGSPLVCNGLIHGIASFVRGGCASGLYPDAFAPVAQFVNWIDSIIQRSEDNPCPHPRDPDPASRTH
It is filed as tissue-based.

Series [4] concerns the target Cytochrome P450 2D6 (Homo sapiens, UniProt P10635). The conditions noted are these: bti-tn-5b1-4. Note: in other assays of this panel Not Active means under 50% inhibition at 10 µM.
A short description of series [5]: DRUGMATRIX: ATPase, Na+/K+ enzyme inhibition (substrate: ATP). It is filed as tissue-based, Sus scrofa, Heart. The settings on record: Not Active = under 50% inhibition at 10 µM.
Series [6] concerns the target T2, Adenosine receptor A3 (Homo sapiens, UniProt P0DMS8).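 Note: radioligand binding assay with AB-MECA serving as the labeled ligand; in other assays of this panel Not Active means under 50% inhibition at 10 µM.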
T2 sequence (P0DMS8 whole entry): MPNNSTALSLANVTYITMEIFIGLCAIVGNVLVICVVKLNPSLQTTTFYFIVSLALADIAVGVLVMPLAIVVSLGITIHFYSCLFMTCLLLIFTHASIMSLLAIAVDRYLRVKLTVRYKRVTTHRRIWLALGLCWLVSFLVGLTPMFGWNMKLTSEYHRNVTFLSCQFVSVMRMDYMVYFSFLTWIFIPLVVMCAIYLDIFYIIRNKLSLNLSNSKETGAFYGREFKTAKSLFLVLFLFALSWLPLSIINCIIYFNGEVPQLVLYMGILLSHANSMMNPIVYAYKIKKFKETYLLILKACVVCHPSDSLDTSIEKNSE
The class given is cell membranes, CHO-K1, Membrane. The conditions noted are these: cho-k1.

The target in series [7] is T3, Nitric oxide synthase, inducible (Mus musculus, UniProt P29477).
T3 sequence (P29477 whole entry): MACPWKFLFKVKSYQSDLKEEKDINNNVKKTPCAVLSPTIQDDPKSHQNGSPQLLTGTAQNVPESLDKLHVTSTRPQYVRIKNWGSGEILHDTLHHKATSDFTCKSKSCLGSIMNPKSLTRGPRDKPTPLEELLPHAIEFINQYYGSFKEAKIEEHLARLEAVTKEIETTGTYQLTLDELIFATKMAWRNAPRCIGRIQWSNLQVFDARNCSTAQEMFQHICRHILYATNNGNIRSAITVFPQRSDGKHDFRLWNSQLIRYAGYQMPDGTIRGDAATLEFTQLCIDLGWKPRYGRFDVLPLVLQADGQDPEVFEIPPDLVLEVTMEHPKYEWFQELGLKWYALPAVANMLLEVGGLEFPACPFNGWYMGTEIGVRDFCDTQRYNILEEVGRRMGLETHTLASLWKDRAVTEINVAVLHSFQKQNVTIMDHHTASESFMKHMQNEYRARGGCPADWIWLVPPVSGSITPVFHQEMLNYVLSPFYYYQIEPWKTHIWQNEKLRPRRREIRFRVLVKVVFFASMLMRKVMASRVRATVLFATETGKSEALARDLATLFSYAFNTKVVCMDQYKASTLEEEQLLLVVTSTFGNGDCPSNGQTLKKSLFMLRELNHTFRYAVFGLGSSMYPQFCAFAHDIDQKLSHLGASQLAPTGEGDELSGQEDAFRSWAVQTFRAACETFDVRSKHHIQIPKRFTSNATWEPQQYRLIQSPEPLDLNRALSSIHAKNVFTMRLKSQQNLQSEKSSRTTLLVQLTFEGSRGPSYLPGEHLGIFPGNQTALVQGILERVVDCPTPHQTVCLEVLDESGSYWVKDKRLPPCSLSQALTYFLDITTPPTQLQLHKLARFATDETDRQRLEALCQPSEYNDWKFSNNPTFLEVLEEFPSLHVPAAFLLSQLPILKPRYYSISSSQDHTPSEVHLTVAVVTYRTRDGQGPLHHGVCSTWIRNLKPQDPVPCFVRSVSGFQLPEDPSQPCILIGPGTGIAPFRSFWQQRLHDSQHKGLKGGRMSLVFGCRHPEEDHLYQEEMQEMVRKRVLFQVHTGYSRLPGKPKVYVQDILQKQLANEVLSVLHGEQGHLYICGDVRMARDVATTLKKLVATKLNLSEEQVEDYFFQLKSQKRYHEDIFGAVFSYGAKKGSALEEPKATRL
Also on record: species or system Escherichia coli.

Cytochrome P450 2D6, sequence (P10635 whole entry): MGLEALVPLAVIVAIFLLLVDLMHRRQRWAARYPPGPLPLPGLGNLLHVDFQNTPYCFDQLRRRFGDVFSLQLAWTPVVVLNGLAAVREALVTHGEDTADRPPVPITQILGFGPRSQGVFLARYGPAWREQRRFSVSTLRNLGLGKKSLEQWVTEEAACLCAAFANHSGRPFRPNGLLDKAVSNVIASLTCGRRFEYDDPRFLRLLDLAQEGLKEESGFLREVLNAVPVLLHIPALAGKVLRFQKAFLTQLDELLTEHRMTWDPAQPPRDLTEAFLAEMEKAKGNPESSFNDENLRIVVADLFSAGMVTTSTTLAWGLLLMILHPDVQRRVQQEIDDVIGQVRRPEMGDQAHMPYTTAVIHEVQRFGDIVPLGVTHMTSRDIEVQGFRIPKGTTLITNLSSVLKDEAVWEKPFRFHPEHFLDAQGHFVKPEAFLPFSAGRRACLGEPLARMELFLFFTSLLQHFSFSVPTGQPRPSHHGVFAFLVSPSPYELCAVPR
Prostaglandin G/H synthase 1, sequence (P23219 whole entry): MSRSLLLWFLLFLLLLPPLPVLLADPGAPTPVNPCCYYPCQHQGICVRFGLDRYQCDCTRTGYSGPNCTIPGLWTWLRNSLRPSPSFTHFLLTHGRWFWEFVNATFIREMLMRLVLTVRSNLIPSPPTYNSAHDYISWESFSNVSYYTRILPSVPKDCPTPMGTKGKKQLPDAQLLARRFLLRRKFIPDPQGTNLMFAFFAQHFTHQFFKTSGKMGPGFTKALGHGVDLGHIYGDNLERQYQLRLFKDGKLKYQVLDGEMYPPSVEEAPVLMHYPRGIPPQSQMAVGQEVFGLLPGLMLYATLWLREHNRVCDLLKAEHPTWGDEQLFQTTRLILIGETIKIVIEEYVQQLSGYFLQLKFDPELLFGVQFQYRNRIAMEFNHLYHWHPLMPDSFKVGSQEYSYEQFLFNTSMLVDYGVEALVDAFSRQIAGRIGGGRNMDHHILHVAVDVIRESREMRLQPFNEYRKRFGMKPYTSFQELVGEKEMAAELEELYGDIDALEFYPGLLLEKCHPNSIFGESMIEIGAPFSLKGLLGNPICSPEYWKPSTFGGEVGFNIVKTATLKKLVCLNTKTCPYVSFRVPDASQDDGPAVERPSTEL

As to `C[C@]12CCC(=O)C=C1CC[C@@H]1[C@@H]2CC[C@@]2(C)[C@H]1CC[C@]2(C)O` [METHYLTESTOSTERONE], the IC50 result in series [1], in series [2], in series [3], in series [4], in series [5] and in series [6] was “Not Active” each time. Also, the IC50 entry in series [7] is “Not Active”. The Ki result in series [2], in series [4] and in series [5] was “Not Active” in each case.

Take `O=C1CC[C@@H](N2C(=O)c3ccccc3C2=O)C(=O)N1`: the IC50 entry in series [1], in series [2], in series [3], in series [4], in series [5] and in series [6] was “Not Active” each time. In addition, the IC50 result in series [7] is on record as “Not Active”. For the same compound, the Ki result in series [2], in series [4] and in series [5] was “Not Active” in each case.

Consider `Cc1c(O)c(=O)ccn1C` [DEFERIPRONE], for which the 50% inhibitory concentration (IC50) entry in series [1], in series [2], in series [3], in series [4], in series [5] and in series [6] was “Not Active” throughout. Also, in series [7], the IC50 entry is listed as “Not Active”. In addition, the Ki entry in series [2], in series [4] and in series [5] was “Not Active” each time.

Consider `CCOc1ccc(NC(C)=O)cc1` [PHENACETIN], for which the IC50 entry in series [1], in series [2], in series [3], in series [4], in series [5] and in series [6] was “Not Active” each time. For the same compound, in series [7], the half-inhibitory concentration (IC50) entry is recorded as “Not Active”. Further, the Ki entry in series [2], in series [4] and in series [5] was “Not Active” each time.

As to `NC1=NC(=O)C(c2ccccc2)O1` (stereo not drawn) [PEMOLINE], the IC50 result in series [1], in series [2], in series [3], in series [4], in series [5] and in series [6] was “Not Active” throughout. In series [7], the IC50 result is given as “Not Active”. Further, the Ki entry in series [2], in series [4] and in series [5] was “Not Active” in each case.

As to `CCn1cc(C(=O)O)c(=O)c2cc(F)c(N3CCNCC3)cc21` [NORFLOXACIN], the half-inhibitory concentration (IC50) entry in series [1], in series [2], in series [3], in series [4], in series [5] and in series [6] was “Not Active” in each case. Also, the IC50 result in series [7] was “Not Active”. Moreover, the Ki result in series [2], in series [4] and in series [5] was “Not Active” throughout.

For `Clc1cccc(Cl)c1NC1=NCCN1` [CLONIDINE], the IC50 entry in series [1], in series [2], in series [3], in series [4], in series [5] and in series [6] was “Not Active” throughout. In addition, the concentration for half-maximal inhibition (IC50) entry in series [7] is recorded as “Not Active”. In addition, the Ki result in series [2], in series [4] and in series [5] was “Not Active” throughout.

For `C=C(C)C1(O)OC(=O)C=C1OC` (stereo not drawn) [PENICILLIC ACID], the IC50 result in series [1], in series [2], in series [3], in series [4], in series [5] and in series [6] was “Not Active” each time. The concentration for half-maximal inhibition (IC50) entry in series [7] is “Not Active”. The Ki result in series [2], in series [4] and in series [5] was “Not Active” in each case.

Regarding `C[C@H](CS)C(=O)N1CCC[C@H]1C(=O)O` [CAPTOPRIL], the IC50 entry in series [1], in series [2], in series [3], in series [4], in series [5] and in series [6] was “Not Active” each time. The IC50 entry in series [7] is given as “Not Active”. For the same compound, the Ki entry in series [2], in series [4] and in series [5] was “Not Active” in each case.

Take `C[C@H]1O[C@@H](O[C@H]2[C@@H](O)C[C@H](O[C@H]3[C@@H](O)C[C@H](O[C@H]4CC[C@@]5(C)[C@H](CC[C@@H]6[C@@H]5C[C@@H](O)[C@]5(C)[C@@H](C7=CC(=O)OC7)CC[C@]65O)C4)O[C@@H]3C)O[C@@H]2C)C[C@H](O)[C@@H]1O` [DIGOXIN]: the IC50 result in series [1] is “Not Active”; in series [2] it was “Not Active”; in series [3] it was “Not Active”; in series [4], “Not Active”; in series [5] (read-out: IC50), 1650 nM; in series [6] it was “Not Active”. Also, the IC50 entry in series [7] is listed as “Not Active”. The Ki result in series [2] and in series [4] was “Not Active” in each case.

With `CC(C)[C@H]1C(=O)N2CCC[C@H]2[C@]2(O)O[C@](NC(=O)[C@@H]3C=C4c5cccc6[nH]cc(c56)C[C@H]4N(C)C3)(C(C)C)C(=O)N12` [ERGOCORNINE], the concentration for half-maximal inhibition (IC50) result in series [1], in series [2], in series [3], in series [4], in series [5] and in series [6] was “Not Active” each time. The half-maximal inhibitory concentration (IC50) entry in series [7] is given as “Not Active”. Also, the Ki result in series [2], in series [4] and in series [5] was “Not Active” throughout.

Consider `C[C@](N)(Cc1ccc(O)c(O)c1)C(=O)O` [METHYLDOPA], for which the 50% inhibitory concentration (IC50) result in series [1], in series [2], in series [3], in series [4], in series [5] and in series [6] was “Not Active” in each case. Besides, the IC50 entry in series [7] was “Not Active”. For the same compound, the Ki result in series [2], in series [4] and in series [5] was “Not Active” each time.

As to `CCOC(=O)C1=C(COCCN)NC(C)=C(C(=O)OC)C1c1ccccc1Cl` (stereo not drawn) [AMLODIPINE], the 50% inhibitory concentration (IC50) entry in series [1], in series [2], in series [3], in series [4], in series [5] and in series [6] was “Not Active” in each case. Besides, the IC50 entry in series [7] is recorded as “Not Active”. Also, the Ki result in series [2], in series [4] and in series [5] was “Not Active” in each case.

As to LEAD (II) ACETATE, the IC50 entry in series [1], in series [2], in series [3], in series [4], in series [5] and in series [6] was “Not Active” throughout. The concentration for half-maximal inhibition (IC50) result in series [7] is “Not Active”. Also, the Ki result in series [1], in series [2], in series [3], in series [4], in series [5] and in series [6] was “Not Active” each time. The Ki result in series [7] is recorded as “Not Active”.

The values above are taken from ChEMBL document CHEMBL1909046, “DrugMatrix in vitro pharmacology data”.
